Laboratory results published in ChEMBL document CHEMBL3045131, “Cyclopenta[b]benzofurans from Aglaia species with pronounced antifungal activity against rice blast fungus (Pyricularia grisea)” (J Agric Food Chem, 2000).
Values after ≈ are worked out from the molar mass of the structure shown. Active and inactive are the calls of the source. The calls are words filed in the database; no cut-off is given here.

Tests used:
Type in all cases: functional, organism-based
Pyricularia grisea = experiment: Antifungal activity against Magnaporthe grisea VIAM MA1627 assessed as inhibition of spore germination by microdilution technique linked with digital image analysis
Fusarium avenaceum = experiment: Antifungal activity against Fusarium avenaceum VIAM MA1512 assessed as inhibition of spore germination by microdilution technique linked with digital image analysis
Alternaria citri [1] = experiment: Antifungal activity against Alternaria citri CBS 192.81; VIAM MA1628 assessed as inhibition of spore germination by microdilution technique linked with digital image analysis
Alternaria citri [2] = experiment: Antifungal activity against Alternaria citri CBS 192.81; VIAM MA1628 assessed as inhibition of spore germination at 200 ug/ml by microdilution technique linked with digital image analysis

## CNC(=O)[C@H]1[C@@H](O)[C@@]2(O)c3c(OC)cc(OC)cc3O[C@@]2(c2ccc(OC)cc2)[C@@H]1c1ccccc1 [DESMETHYL ROCAGLAMIDE]
Pyricularia grisea
  EC50: 7 µg/mL (≈ 14.2 µM)
  EC90: 146 µg/mL (≈ 297 µM)
  MIC: 100 µg/mL (≈ 203 µM)

## CCCCNC(=O)n1c(NC(=O)OC)nc2ccccc21 [BENOMYL]
Fusarium avenaceum
  EC90: > 200 µg/mL
  MIC: 100 µg/mL (≈ 344 µM)
Alternaria citri [1]
  EC50: > 200 µg/mL
  EC90: > 200 µg/mL
  MIC: > 200 µg/mL
Pyricularia grisea
  EC90: 84 µg/mL (≈ 289 µM)
  MIC: 200 µg/mL (≈ 689 µM)

## COc1ccc([C@@]23Oc4cc5c(c(OC)c4[C@]2(O)[C@H](O)[C@H](C(=O)N(C)C)[C@H]3c2ccccc2)OCO5)cc1 [AGLAROXIN A]
Pyricularia grisea
  EC50: 1.4 µg/mL (≈ 2.69 µM)
  EC90: > 200 µg/mL
  MIC: 100 µg/mL (≈ 192 µM)

## COc1ccc([C@@]23Oc4cc(OC)cc(OC)c4[C@]2(O)[C@H](O)C[C@H]3c2ccccc2)cc1 [ROCAGLAOL]
Alternaria citri [2]
  Activity: inactive
Fusarium avenaceum
  EC50: 0.4 µg/mL (≈ 0.921 µM)
  EC90: 9 µg/mL (≈ 20.7 µM)
  MIC: 25 µg/mL (≈ 57.5 µM)
Alternaria citri [1]
  EC50: 6 µg/mL (≈ 13.8 µM)
  EC90: 24 µg/mL (≈ 55.2 µM)
  MIC: 50 µg/mL (≈ 115 µM)
Pyricularia grisea
  EC50: 0.01 µg/mL (≈ 0.023 µM)
  EC90: 0.3 µg/mL (≈ 0.69 µM)
  MIC: 1.6 µg/mL (≈ 3.68 µM)

## COc1ccc([C@]2(C(=O)O)Oc3cc4c(c(OC)c3C(=O)[C@H](C(=O)N3CCCC3NC(=O)C(C)C)[C@H]2c2ccccc2)OCO4)cc1 (some centres not stated) [THAPOXEPINE A]
Pyricularia grisea
  EC50: > 200 µg/mL
  EC90: > 200 µg/mL
  MIC: > 200 µg/mL

## COc1ccc([C@@]23Oc4cc(OC)cc(OC)c4[C@]2(O)[C@H](O)[C@H](C(=O)N(C)C)[C@H]3c2ccccc2)cc1 [ROCAGLAMIDE]
Fusarium avenaceum
  EC50: 8 µg/mL (≈ 15.8 µM)
  EC90: 66 µg/mL (≈ 131 µM)
  MIC: 200 µg/mL (≈ 396 µM)
Alternaria citri [1]
  EC50: > 200 µg/mL
  EC90: > 200 µg/mL
  MIC: > 200 µg/mL
Pyricularia grisea
  EC50: 0.9 µg/mL (≈ 1.78 µM)
  EC90: 35 µg/mL (≈ 69.2 µM)
  MIC: 25 µg/mL (≈ 49.4 µM)

## COC(=O)[C@H]1[C@@H](O)[C@@]2(O)c3c(cc4c(c3OC)OCO4)O[C@@]2(c2ccc(OC)cc2)[C@@H]1c1ccccc1 [PANNELLIN]
Fusarium avenaceum
  EC50: 11 µg/mL (≈ 21.7 µM)
  EC90: > 200 µg/mL
  MIC: 200 µg/mL (≈ 395 µM)
Alternaria citri [1]
  EC50: > 200 µg/mL
  EC90: > 200 µg/mL
  MIC: > 200 µg/mL
Pyricularia grisea
  EC50: 0.06 µg/mL (≈ 0.118 µM)
  EC90: 171 µg/mL (≈ 338 µM)
  MIC: 50 µg/mL (≈ 98.7 µM)

## COC(=O)[C@@H]1[C@@]2(O)c3c(cc4c(c3OC)OCO4)O[C@]1(c1ccc(OC)cc1)[C@H](c1ccccc1)[C@H]2C(=O)N1CCCC1NC(=O)C(C)C (some centres not stated) [THAPSAKINACETATE A]
Pyricularia grisea
  EC50: > 200 µg/mL
  EC90: > 200 µg/mL
  MIC: > 200 µg/mL

## COc1ccc(C2C(=O)Oc3cc4c(c(OC)c32)OCO4)cc1 (configuration not stated) [AGLALACTONE]
Pyricularia grisea
  EC50: > 200 µg/mL
  EC90: > 200 µg/mL
  MIC: > 200 µg/mL

## CN(CC[C@H](N)CC(=O)N[C@H]1C=C[C@H](n2ccc(N)nc2=O)O[C@@H]1C(=O)O)C(=N)N [BLASTICIDIN_S]
Fusarium avenaceum
  EC50: 0.4 µg/mL (≈ 0.947 µM)
  EC90: 7 µg/mL (≈ 16.6 µM)
  MIC: 25 µg/mL (≈ 59.2 µM)
Alternaria citri [1]
  EC50: 6 µg/mL (≈ 14.2 µM)
  EC90: 53 µg/mL (≈ 125 µM)
  MIC: 50 µg/mL (≈ 118 µM)
Pyricularia grisea
  EC90: > 200 µg/mL
  MIC: > 200 µg/mL

## COC(=O)[C@H]1[C@@H](O)[C@@]2(O)c3c(OC)cc(OC)cc3O[C@@]2(c2ccc(OC)cc2)[C@@H]1c1ccccc1 [AGLAFOLIN]
Fusarium avenaceum
  EC50: 1.6 µg/mL (≈ 3.25 µM)
  EC90: 38 µg/mL (≈ 77.2 µM)
  MIC: 100 µg/mL (≈ 203 µM)
Alternaria citri [1]
  EC50: 44 µg/mL (≈ 89.3 µM)
  EC90: 171 µg/mL (≈ 347 µM)
  MIC: 200 µg/mL (≈ 406 µM)
Pyricularia grisea
  EC50: 0.05 µg/mL (≈ 0.102 µM)
  EC90: 8 µg/mL (≈ 16.2 µM)
  MIC: 3 µg/mL (≈ 6.09 µM)
